Data reported in paper PMC12263422, “Cryo-EM structure of the human THIK-1 K2P K^+ channel reveals a lower Y gate regulated by lipids and anesthetics” (Nature Structural & Molecular Biology, 2025).
Substitutions are numbered along the chain they refer to. Several values for one entry are separate records, joined by “and”; a condition that tells them apart may be missing. Equal entries are not always repeated.

Columns and labels:
[1] = molecular target: T1, THIK-1 T110A (Homo sapiens, UniProt Q9HB14, T110A); assay: Inside-out excised patch recordings, oocytes, THIK-1 T110A mutant; type: cell-based
T1 construct: expressed in transfected cells; host or cells: Xenopus oocytes (mRNA injection)
T1 sequence (Q9HB14 1-408 T110A): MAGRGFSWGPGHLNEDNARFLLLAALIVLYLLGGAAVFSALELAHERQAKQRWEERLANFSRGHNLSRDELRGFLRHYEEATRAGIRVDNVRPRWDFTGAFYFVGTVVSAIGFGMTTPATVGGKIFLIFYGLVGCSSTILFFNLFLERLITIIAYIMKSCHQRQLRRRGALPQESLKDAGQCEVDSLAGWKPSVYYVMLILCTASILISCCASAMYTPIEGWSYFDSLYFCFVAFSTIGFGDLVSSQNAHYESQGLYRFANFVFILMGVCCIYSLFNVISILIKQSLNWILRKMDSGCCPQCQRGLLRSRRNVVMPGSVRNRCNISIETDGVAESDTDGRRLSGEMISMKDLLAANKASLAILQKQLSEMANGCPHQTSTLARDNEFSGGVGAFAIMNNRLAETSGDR
Text: (§1) Human K2P13.1 THIK-1 (GenBank accession number: NM_022054) and human K2P12.1 THIK-2 (NM_022055.1) were used in this study. For functional expression studies, the respective K^+ channel subtype coding sequences were subcloned into the oocyte expression vector pSGEM or the dual-purpose expression vector pFAW[41] and verified by sequencing. All mutant channels were obtained by site-directed mutagenesis and verified by sequencing. To increase surface expression and macroscopic currents, measurements of THIK-2 channels used a mutated ER retention motif, (R11A R12A R14A R15A R16A; THIK-2*)[20]. Vector DNA was linearized with NheI or MluI, and mRNA was synthesized in vitro using the SP6 or T7 AmpliCap Max High Yield Message Maker Kit (Cellscript, USA) or HiScribe T7 ARCA mRNA Kit (New England Biolabs).
(§2) Two-electrode voltage–clamp (TEVC) studies were performed in Xenopus oocytes. All animal use conformed to the Guide for the Care and Use of Laboratory Animals (NIH Publication 85–23), and all experiments using Xenopus toads were approved by the local ethics panels. Oocytes were stored at 17 °C in ND96 recording solution composed of (in mM): 96 NaCl, 2 KCl, 1.8 CaCl2, 1 MgCl2, 5 HEPES (pH 7.5 adjusted with NaOH and HCl), supplemented with Na-pyruvate (275 mg L^–1), theophylline (90 mg L^–1) and gentamicin (50 mg L^–1). Oocytes were injected with 1 ng mRNA for WT or mutant channels, and were incubated for 24–48 h at 17 °C. Two-electrode voltage clamp recordings were then performed as previously described[42],[43]. For macroscopic patch–clamp measurements, oocytes were obtained as described above incubated at 17 °C in a solution containing (mM): 54 NaCl, 30 KCl, 2.4 NaHCO3, 0.82 MgSO4 ×7 H2O, 0.41 CaCl2, 0.33 Ca(NO3)2 ×4 H2O and 7.5 TRIS (pH 7.4 adjusted with NaOH and HCl) for 1–4 days before use. Excised patch recordings in inside-out configuration conditions were performed at room temperature. Patch pipettes were made from thick-walled borosilicate glass GB 200TF-8P (Science Products), had resistances of 0.2–0.5 MΩ (tip diameter, 10–25 µm) and filled with a pipette solution (in mM): 120 KCl, 10 HEPES and 3.6 CaCl2 (pH 7.4 adjusted with KOH and HCl). Intracellular bath solutions and compounds were applied to the cytoplasmic side of excised patches for the various K^+ channels through a gravity flow multi-barrel pipette system. The intracellular solution had the following composition (in mM): 120 KCl, 10 HEPES, 2 EGTA and 1 pyrophosphate (pH adjusted with KOH and HCl). Currents were recorded with an EPC10 amplifier (HEKA Electronics) and sampled at 10 kHz or higher, with filtering set to 3 kHz (–3 dB) or higher, as appropriate for sampling rate. For measurements of GPCR activation, whole-cell currents were recorded for THIK-1 in transiently transfected HEK-293 cells. Cells were stimulated by a ramp protocol between −100 and +60 mV (holding potential, −80 mV). The pipette solution was composed of (in mM): 140 KCl, 2 MgCl2, 1 CaCl2, 2.5 EGTA and 10 HEPES (pH 7.3 adjusted with KOH and HCl). The extracellular bath solution had the following composition (in mM): 135 NaCl, 5 KCl, 2 MgCl2, 2 CaCl2, 10 glucose and 10 HEPES pH (pH 7.3 adjusted with NaOH and HCl). Oxotremorine M (Oxo-M) was added to extracellular bath solution to obtain the final concentration. Single-channel currents were recorded with an Axopatch 200B amplifier through a Digidata 1440A digitizer (Molecular Devices). Data were filtered at 2 kHz and recorded at a 200-kHz sampling rate with the program Clampex (Molecular Devices). Pipette solution and bath solution for cell-attached recordings contained (in mM): 140 KCl, 2 MgCl2, 1 CaCl2 and 10 HEPES (pH 7.4 adjusted with KOH and HCl). For inside-out recordings, the bath solution contained (in mM): 140 KCl, 2 MgCl2, 1 CaCl2 and 10 HEPES (pH 7.2 adjusted with KOH and HCl). All experiments were conducted at room temperature. […]

[2] = molecular target: T2, THIK-1 Y273A/I139A (Homo sapiens, UniProt Q9HB14, I139A/Y273A); assay: Inside-out excised patch recordings, oocytes, THIK-1 Y273A/I139A double mutant; type: cell-based; settings: for τ of 1 mM TPenA block / τ of 1 mM TPenA release: I139A/Y273A; for Normalized currents: THIK-1 Y273A/I139A
T2 construct: expressed in transfected cells; host or cells: Xenopus oocytes (mRNA injection)
T2 sequence (Q9HB14 1-408 I139A/Y273A): T1 sequence (Q9HB14 1-408 T110A) with A110T, I139A, Y273A
Text: as §1, §2

For `FC(F)(F)C(Cl)Br` (centres unmarked) [halothane], the “Inhibition (%)” value ([1]; 3.0 mM halothane, T110A, individual recordings) was 71.250% and 68.098% and 66.319% and 64.813% and 55.507% and 41.148% and 63.240% and 65.945% and 75.271%, the inhibition at 152 µM ([1]; halothane 0.152 mM, THIK-1 T110A) was 9.23% and the inhibition at 304 µM ([1]; halothane 0.304 mM, THIK-1 T110A) was 14.1%. It also gave an inhibition at 1520 µM ([1]; halothane 1.52 mM, THIK-1 T110A) of 45.3%, an inhibition at 3040 µM ([1]; halothane 3.04 mM, THIK-1 T110A) of 63.5% and an inhibition at 15200 µM ([1]; halothane 15.2 mM, THIK-1 T110A) of 89.5%.
With `CCCCC[N+](CCCCC)(CCCCC)CCCCC` [TPenA, tetrapentylammonium] the Normalized currents ([1]; THIK-1 T110A, 15.6 µM TPenA) was 1.00, the Normalized currents ([1]; THIK-1 T110A, 62.5 µM TPenA) was 0.95 and the Normalized currents ([1]; THIK-1 T110A, 250 µM TPenA) was 0.81. For the same compound, the Normalized currents ([1]; THIK-1 T110A, 1000 µM TPenA) was 0.57, the Normalized currents ([1]; THIK-1 T110A, 4000 µM TPenA) was 0.28 and the IC50 ([1]; TPenA IC50, T110A mutant) was 1280 µM. The IC50 ([1]; TPenA IC50, THIK-1 T110A, individual recordings) was 583 µM and 1570 µM and 596 µM and 1530 µM and 2420 µM and 1850 µM and 1140 µM and 1600 µM and 1210 µM and 982 µM and 651 µM, the IC50 ([1]; TPenA IC50, THIK-1 T110A, mean) was 1280 µM and the “τ of 1 mM TPenA block” value ([2]; individual recordings) was 0.121 s and 0.062 s and 0.131 s and 0.164 s and 0.120 s and 0.094 s and 0.191 s and 0.111 s and 0.116 s and 0.183 s and 0.093 s and 0.084 s and 0.142 s and 0.070 s and 0.095 s and 0.042 s. For the same compound, the “τ of 1 mM TPenA release” value ([2]; individual recordings) was 0.960 s and 0.559 s and 1.130 s and 0.565 s and 0.799 s and 0.283 s and 0.914 s and 0.634 s and 0.842 s and 0.928 s and 0.662 s and 0.571 s and 0.449 s and 0.371 s and 1.055 s, the “τ of 1 mM TPenA block” value ([2]; mean) was 0.11 s and the “τ of 1 mM TPenA release” value ([2]; mean) was 0.71 s. For the same compound, the Normalized currents ([2]; TPenA 0.1 µM) was 1.00, the Normalized currents ([2]; TPenA 1 µM) was 0.95 and the Normalized currents ([2]; TPenA 4 µM) was 0.90. The Normalized currents ([2]; TPenA 15.6 µM) was 0.68, the Normalized currents ([2]; TPenA 62.5 µM) was 0.47 and the Normalized currents ([2]; TPenA 250 µM) was 0.22. It also gave a Normalized currents ([2]; TPenA 1000 µM) of 0.08 and a Normalized currents ([2]; TPenA 4000 µM) of 0.03.
